Data on 5 molecules can be found in US5723465A, “Inhibitors for cell adhesion and cellular infiltration” (Kowa Co., Ltd., priority 1995, dated 1998).

In general, IC50 refers to the concentration that inhibits the measured activity by half.

Assay [1] deals with infiltration of trachea by eosinocytes. In words: Inhibition of eosinocyte infiltration in a guinea pig asthma model. As to conditions: 6 successive days plus 2 hours after challenge, 24 h after, control 204.5 ± 15.3, blank 67.7 ± 7.2. It is filed as in vivo, guinea pig (Hartley male). The method, then:
In accordance with a method described by Terashi (Allergy, 37, 980-991 (1988)), groups of Hartley male guinea pigs, each group consisting of 4-7 animals (body weight: about 300 g), were exposed to chicken egg albumin (10 mg/ml) by way of inhalation using a ultrasonic nebulizer for 10 minutes a day for successive 9 days, to thereby create a sensitized state of the animals. From the following day, test compound 2 was intraperitoneally administered to each animal for successive 6 days (10 or 30 mg/kg). On day 7, metopyrone (10 mg/kg) and chlorphenylamine (10 mg/kg) were intraperitoneally administered to each animal. Thirty minutes later, each animal was exposed to chicken egg albumin (10 mg/ml) for 10 minutes by way of inhalation. In addition, 2 hours thereafter, test compound 2 was intraperitoneally administered to each animal. Twenty-four hours later, each animal was exsanguinated to death, and its trachea was removed. The trachea was fixed with formalin and embedded in paraffin, so as to prepare thin slice samples. The samples were subjected to luna staining, and eosinocytes that infiltrated were counted.

The test system of assay [2] is mouse type II collagen arthritis. In words: Action on mouse type II collagen arthritis. It is filed as in vivo, mouse (DBA/1 male). As to conditions: 30 mg/kg intraperitoneally once daily, 10 times. The procedure: The test was performed in accordance with a method described by Ranges et al. (J. Exp. Med., 162, 1105-1110 (1985)). To each of DBA/1 male mice (6-7 weeks old), 100 μg of type II collagen from bovine suspended in Freund's complete adjuvant was subcutaneously injected at the root of its tail. Twenty one days later, the mice was given a booster injection in a similar manner. The drug was intraperitoneally administered to each mouse once every day starting from 2 days prior to the booster injection until 7 days after the booster injection (a total of 10 times). The severity of arthritis was evaluated by measuring the thickness of the front foot pads. In addition, antibody titers (IgG+IgM) against type II collagen in serum were determined by ELISA.

Assay [3] has as its system lymphocyte infiltration (CD3 positive cells) in mouse contact dermatitis. The assay can be described thus: Lymphocyte infiltration inhibitory action in mouse contact dermatitis. It is filed as in vivo, mouse (ddy male). The conditions noted are these: 6 successive days before induction, 24 h after picryl chloride; for Ear weight (difference in weight of both ears): control 4.9 ± 0.7; for Count of CD3 positive cells: control 10.8 ± 1.3. The procedure:
In accordance with a method described by Asherson et al. (Immunology, 15, 405-416 (1968)), action of the compound on lymphocyte infiltration in mouse contact dermatitis was investigated. Groups of ddy male mice that had been sensitized with picryl chloride, each group consisting of 10 animals (body weight: 28-32 g), were provided for the test. Test compound 2 was intraperitoneally administered to each animal for successive 6 days before induction took place (1 or 10 mg/kg). A 1% solution of picryl chloride-olive oil (0.02 ml) was applied to an ear of each animal. Twenty-four hours later, both ears were punched (7 mm.phi.), to thereby compute the difference in weight. The ears were then embedded in paraffin, frozen, and cut in a vertical direction with respect to the ear face to prepare thin slices each having a thickness of 4 μm. CD3 positive cells were immunostained and counted.

Assay [4] has as its system leukocyte infiltration in rat carrageenin pleurisy. The assay can be described thus: Leukocyte infiltration inhibitory action in rat carrageenin pleurisy. The class given is in vivo. The conditions noted are these: 2 successive days, 16 h after carrageenin; for Count of infiltrated cells: control 2.37 ± 0.06; for Pleural fluid volume: control 3.3 ± 0.3. The procedure: In accordance with a method described by Kikuchi et al. (Japan J. Pharmacol., 39, 467-473 (1985)), action of the compound on leukocyte infiltration in rat carrageenin pleurisy was investigated. Groups of SD male […], each group consisting of 6 animals (7 weeks old), were provided for the test. Test compound 2 was intraperitoneally administered to each animal for successive 2 days (10 or 30 mg/kg). Two hours after the final administration, a 2% (w/v) carrageenin solution (0.1 ml) was intrathoracically administered. Sixteen hours later, each animal was exsanguinated to death, and pleural fluid was collected. The volume of the collected pleural fluid was measured, and cells that infiltrated and present in the pleural fluid were counted.

Assay [5] has as its system adhesion of U937 cells to human umbilical vein endothelial cells (HUVEC). The assay can be described thus: Cell adhesion inhibitory effect: adhesion of U937 cells to IL-1β- or TNFα-stimulated HUVEC. As to conditions: 0.75 h, 45 minutes adhesion at room temperature. It is filed as cell-based. The method, then:
The test was performed with reference to a method described by Ross et al (J. Biol. Chem., 267, 8537-8543 (1992)). Briefly, endothelial cells derived from the human umbilical code vein (HUVEC) were cultured in a 48-well plate until they became confluent. Subsequently, IL-1β or TNFα was added. Five hours after the addition, U937 cells which are derived from human monocytes/histiocytes and FITC-labeled with PKH2 (Dainippon Seiyaku) were added to each well in an amount of 3×10^5 cells per well. After being allowed to stand for 45 minutes at room temperature, U937 cells which had not been adhered to were washed off, and the remaining cells were lysed using 1% Triton X-100. Fluorescent intensity was measured (Exi. 494 nm, Emi. 504 nm). The HUVEC cells were cultured in EGM-UV (Kurabo Industries Ltd.), and U937 cells were cultured in RPMI1640 plus 10% FCS. Each test drug (compound) was added to HUVEC simultaneously with the addition of IL-1β or TNFα, or to U937 cells 24 hours before the cell adhesion test, to thereby study the effect of the compound. The inhibitory activity was determined by the following equation: […]
(the number of drug-free U937 cells adhered to drug-free endothelial cells that have been stimulated with IL-1β or TNFα)--(the number of drug-free U937 cells adhered to drug-free endothelial cells that have not been stimulated with IL-1β or TNFα)=100%

Where [6] appears, read: 10 mg/kg intraperitoneally, p <0.05.
The mark [7] stands for this setting: 30 mg/kg intraperitoneally, p <0.01.
Where [8] appears, read: IL-1β-stimulated HUVEC, read-out: Cell Adhesion (IC50), IL-1β Stimulation.
Where [9] appears, read: TNFα-stimulated HUVEC, read-out: Cell Adhesion (IC50), TNFα Stimulation.

Where two headings read alike, the source gives them in different places.

For the molecule `COc1cc(/C=C/CCCN2CCCN(CCC/C=C/c3cc(OC)c(OC)c(OC)c3)CC2)cc(OC)c1OC` [Test Compound 2, N,N'-bis-((E)-5-(3,4,5-trimethoxyphenyl)-4-pentenyl)homopiperazine.2HCl], the “Infiltration of trachea by eosinocytes” value is given as 171.0 ± 6.5 cells/mm in assay [1] (setting [6]) and 122.2 ± 7.0 cells/mm in assay [1] (setting [7]). Besides, the “Thickness of front foot pad, after 30 days” value in assay [2] (after 30 days, control 421.3 ± 13.1, blank 361.0 ± 4.2, p <0.05) is 384.8 ± 6.9 × 10^-2 mm. Besides, in assay [2] (serum, ELISA, after 33 days, control 1.00 ± 0.13, blank 0 ± 0.00, p <0.01), the “Antibody titer against collagen (IgG + IgM), after 33 days” value is listed as 0.43 ± 0.10 percentage with respect to the. Besides, the “Ear weight (difference in weight of both ears)” value in assay [3] (1 mg/kg intraperitoneally) is 4.5 ± 0.8 mg/7 mm.phi; in assay [3] (setting [6]), 2.9 ± 0.6 mg/7 mm.phi. Moreover, the “Count of CD3 positive cells” value in assay [3] (1 mg/kg intraperitoneally, p <0.05) came out at 7.8 ± 0.4 cells/mm; in assay [3] (10 mg/kg intraperitoneally, p <0.01) it was 4.2 ± 0.7 cells/mm. The “Count of infiltrated cells” value was 1.97 ± 0.05 × 10^8 in assay [4] (10 mg/kg intraperitoneally) and 1.68 ± 0.22 × 10^8 in assay [4] (setting [7]). The Pleural fluid volume in assay [4] (10 mg/kg intraperitoneally) came out at 2.5 ± 0.3 mL; in assay [4] (30 mg/kg intraperitoneally, p <0.05), 2.5 ± 0.3 mL.
For `COc1cc(/C=C/CCCN2CCCN(CCC/C=C/c3cc(OC)c(OC)c(OC)c3)CC2)cc(OC)c1OC` [compound 2], the results for the IC50 in assay [5] (setting [8]) and in assay [5] (setting [9]) were 9 µM and 9.5 µM, respectively.
Take `COc1ccc(/C=C/CCCN2CCN(CCC/C=C/c3ccc(OC)cc3)CC2)cc1` [compound 4]: the values for the IC50 in assay [5] (setting [8]) and in assay [5] (setting [9]) were 11.1 µM and 9.4 µM, respectively.
Taken in the same sequence, the figures for `COc1cc(/C=C\CCCN2CCCN(CCC/C=C\c3cc(OC)c(OC)c(OC)c3)CC2)cc(OC)c1OC` [compound 1] were 9.7 µM and 8 µM.
Taken in the same sequence, the figures for `COc1ccccc1/C=C/CN1CCN(C/C=C/c2ccccc2OC)CC1` [compound 3] were 3.4 µM and 12.9 µM.
